Columns and labels:
Type in all cases: in vivo
male SD rats [1] = assay: hyperlipemia induced by Triton WR-1339; details: 10 mg/kg intravenously with 300 mg/kg Triton WR-1339, blood 43 hours after injection
Experimental: In order to examine the mechanism of the lipid decreasing effect of cycloartenol ferulate the effect of the same on hyperlipemia induced by a surfactant (Triton WR-1339) was confirmed.
The test was conducted with male SD rats aged six weeks. 300 mg/kg of Triton WR-1339 was intravenously injected to each rat of the first group to thereby induce hyperlipemia (Triton control group), while 10 mg/kg of cycloartenol ferulate or 10 mg/kg of γ-oryzanol was intravenously injected simultaneously with 300 mg/kg of Triton WR-1339 to each rat of other groups, thus examining the effect of decreasing lipids. Blood of each animal was collected 43 hours after the intravenous injection.

dd mice = assay: acute toxicity, oral, mice; details: 5 g/kg orally, five dd mice
Source text: (§1) In order to examine the acute toxicity of cycloartenol ferulate, it was orally administered to five dd mice and five SD rats.

male SD rats [2] = tested on: male SD rats
Experimental: In order to examine the effect of decreasing lipids, male SD rats aged four weeks were classified into the following four groups: i.e. (1) an ordinary diet group (control); (2) a cholesterol diet group; (3) a cholesterol diet group to which cycloartenol ferulate was administered; and (4) a cholesterol diet group to which γ-oryzanol was administered.
Cycloartenol ferulate or γ-oryzanol was orally administered for 12 days repeatedly with the use of a metal probe. Each compound was administered in doses of 100 mg/kg, 500 mg/kg and 1000 mg/kg per animal a day. After each administration, blood of the animal was collected to determine free cholesterol (FC), triglyceride (TG) and phospholipids (PL) contained therein.

SD rats = assay: acute toxicity, oral, rats; details: 5 g/kg orally, five SD rats
Source text: as §1

COc1cc(/C=C/C(=O)O[C@H]2CC[C@]34C[C@]35CC[C@]3(C)[C@@H]([C@H](C)CCC=C(C)C)CC[C@@]3(C)[C@@H]5CC[C@H]4C2(C)C)ccc1O [cycloartenol ferulate]
TC (male SD rats [1]; vs Triton control group and γ-oryzanol group (Fig. 13)): significant decreases | FC (male SD rats [1]; vs Triton control group and γ-oryzanol group (Fig. 14)): significant decreases | TG (male SD rats [1]; vs Triton control group and γ-oryzanol group (Fig. 15)): significant decreases | acute toxicity (dd mice): no animal died nor showed any toxic symptom | free cholesterol (FC) (male SD rats [2]; blood, cholesterol diet, oral, 12 days, 100, 500 and 1000 mg/kg a day, vs cholesterol diet group (Fig. 5)): lower than that of the cholesterol diet group to a statistically significant extent | triglyceride (TG) (male SD rats [2]; blood, cholesterol diet, oral, 12 days, 100, 500 and 1000 mg/kg a day, vs cholesterol diet group (Fig. 6)): lower than that of the cholesterol diet group to a statistically significant extent | phospholipids (PL) (male SD rats [2]; blood, cholesterol diet, oral, 12 days, 100, 500 and 1000 mg/kg a day, vs cholesterol diet group (Fig. 7)): lower than that of the cholesterol diet group to a statistically significant extent | body weight gain (male SD rats [2]; cholesterol diet suppresses body weight gain, oral, 12 days (Fig. 12)): accelerated the growth of animals | arteriosclerosis index (male SD rats [2]; cholesterol diet, oral, 12 days (Fig. 9)): remarkably lowers this index | HDL-cholesterol (HDLC) (male SD rats [2]; cholesterol diet, oral, 12 days, vs cholesterol diet group (Fig. 8)): increase HDLC to a statistically significant extent | GOT (male SD rats [2]; rat, in vivo, po): no changes | GPT (male SD rats [2]; rat, in vivo, po): no changes | acute toxicity (SD rats): no animal died nor showed any toxic symptom

— EP0222912A1, “AGENT FOR TREATING ARTERIOSCLEROSIS” (ZERIA SHINYAKU KOGYO KABUSHIKI KAISHA, priority 1984, dated 1985)
